Assay results taken from paper PMC10648349, “Aromatic Diboronic Acids as Effective KPC/AmpC Inhibitors” (Molecules, 2023).
Converted amounts (≈) assume the structure as drawn.

Legend:
[1] = tested on: K. pneumoniae 81 KPC-3(+); experiment: MIC of tested agent alone, microdilution; format: cell-based; conditions: Klebsiella pneumoniae; read-out: MIC of agent alone
Procedure, shortened: (§1)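 MICs of the agents alone were determined by broth microdilution. In checkerboard plates, β-lactams (1–64 mg/L) were combined with the agents or PBA at 4–16 mg/L, and antibiotic MICs were read at each agent concentration. FICI was calculated at the growth/no-growth interface.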

[2] = tested on: K. pneumoniae ATCC BAA-1705 KPC-2(+); experiment: MIC of tested agent alone, microdilution; format: cell-based; conditions: Klebsiella pneumoniae, ATCCBAA1705; read-out: MIC of agent alone
Procedure, shortened: as §1

[3] = tested on: K. pneumoniae 83 KPC-3(+), CTX-M-3(+); experiment: MIC of tested agent alone, microdilution; format: cell-based; conditions: Klebsiella pneumoniae; read-out: MIC of agent alone
Procedure, shortened: as §1

[4] = tested on: P. aeruginosa MUW 700 AmpC(+); experiment: MIC of tested agent alone, microdilution; format: cell-based; conditions: Pseudomonas aeruginosa; read-out: MIC of agent alone
Procedure, shortened: as §1

E. coli 76 KPC-2(+) = experiment: MIC of tested agent alone, microdilution; format: cell-based; conditions: Escherichia coli; read-out: MIC of agent alone
Procedure, shortened: as §1

E. coli 77 CMY-2(+) = experiment: MIC of tested agent alone, microdilution; format: cell-based; conditions: Escherichia coli; read-out: MIC of agent alone
Procedure, shortened: as §1

[5] = tested on: C. guilliermondii IBA 155; experiment: antifungal activity (disc-diffusion, MIC, MFC); format: cell-based, Candida guilliermondii; conditions: Meyerozyma guilliermondii, IBA155; for MIC: fluconazole by Etest
Procedure, shortened: (§2)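 EUCAST/CLSI methods: disc diffusion at 0.4 mg compound/disc, broth MIC, then MBC (bacteria) or MFC (yeast). DMSO vehicle.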

[6] = tested on: P. aeruginosa MUW 700 cAmpC-positive; experiment: checkerboard microdilution, antibiotic plus tested agent; format: cell-based, Pseudomonas aeruginosa
Procedure, shortened: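 Read-out is the antibiotic MIC with agent present, plus FICI = combined/alone MIC ratios summed for both partners. Meropenem pairs served for carbapenemase strains and ceftazidime pairs for the AmpC strain. Agent or PBA was tested at 4–16 mg/L.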

B. subtilis ATCC 6633 = experiment: direct antimicrobial activity (disc-diffusion); format: cell-based; conditions: Bacillus subtilis, ATCC6633; 0.4 mg per disc, 9 mm disc (linezolid 0.03 mg, 6 mm disc); - no zone; read-out: Diameter of inhibition zone
Procedure, shortened: as §2

E. faecalis ATCC 29212 = experiment: direct antimicrobial activity (disc-diffusion, MIC, MBC); format: cell-based; conditions: Enterococcus faecalis, ATCC29212
Procedure, shortened: as §2

[7] = tested on: S. epidermidis ATCC 12228; experiment: as above; format: cell-based; conditions: Staphylococcus epidermidis, ATCC12228; for zone of inhibition at 0.4 mg/disc: 0.4 mg per disc, 9 mm disc (linezolid 0.03 mg, 6 mm disc), - no zone, read-out: Diameter of inhibition zone
Procedure, shortened: as §2

[8] = tested on: S. aureus ATCC 43300 MRSA; experiment: as above; format: cell-based; conditions: Staphylococcus aureus; for zone of inhibition at 0.4 mg/disc: 0.4 mg per disc, 9 mm disc (linezolid 0.03 mg, 6 mm disc), - no zone, read-out: Diameter of inhibition zone
Procedure, shortened: as §2

E. faecium ATCC 6057 = experiment: as above; format: cell-based; conditions: Enterococcus faecium, ATCC6057
Procedure, shortened: as §2

S. aureus ATCC 6538P = experiment: as above; format: cell-based; conditions: Staphylococcus aureus, ATCC6538P; for zone of inhibition at 0.4 mg/disc: 0.4 mg per disc, 9 mm disc (linezolid 0.03 mg, 6 mm disc), - no zone, read-out: Diameter of inhibition zone
Procedure, shortened: as §2

C. tropicalis IBA 171 = experiment: antifungal activity (disc-diffusion, MIC, MFC); format: cell-based; conditions: Candida tropicalis, IBA171; fluconazole by Etest
Procedure, shortened: as §2

S. cerevisiae ATCC 9763 = experiment: antifungal activity (disc-diffusion, MIC, MFC); format: cell-based; conditions: Saccharomyces cerevisiae, ATCC9763; for MIC: fluconazole by Etest
Procedure, shortened: as §2

C. tropicalis ATCC 750 = experiment: antifungal activity (disc-diffusion, MIC, MFC); format: cell-based; conditions: Candida tropicalis, ATCC750; fluconazole by Etest
Procedure, shortened: as §2

C. albicans ATCC 90028 = experiment: antifungal activity (disc-diffusion, MIC, MFC); format: cell-based; conditions: Candida albicans, ATCC90028; fluconazole by Etest
Procedure, shortened: as §2

[9] = tested on: P. aeruginosa MUW 700 cAmpC-positive; experiment: combination disc test CDT-AmpC; format: cell-based; conditions: Pseudomonas aeruginosa, read-out: Diameter of inhibition zone, CAZ-30 disc with agent; for zone of inhibition at 100 µg/disc: agent 0.1 mg per disc
[10] = tested on: K. pneumoniae ATCC BAA 1705 KPC-2-positive; experiment: combination disc test CDT-KPC; format: cell-based; conditions: Klebsiella pneumoniae, BAA1705, read-out: Diameter of inhibition zone, MEM-10 disc with agent; for zone of inhibition at 100 µg/disc: agent 0.1 mg per disc
[11] = 0.4 mg per disc, 9 mm disc (fluconazole 0.025 mg, 6 mm disc), - no zone, read-out: Diameter of inhibition zone
[12] = 0.4 mg per disc, 9 mm disc (linezolid 0.03 mg, 6 mm disc), - no zone, read-out: Diameter of inhibition zone

MIC [1]	MIC [2]	MIC [3]	MIC [4]	MIC (E. coli 76 KPC-2(+))	MIC (E. coli 77 CMY-2(+))	MIC [5]	MIC (E. faecalis ATCC 29212)	MIC [7]	MIC [8]	MIC (E. faecium ATCC 6057)	MIC (S. aureus ATCC 6538P)	MIC (C. tropicalis IBA 171)	MIC (S. cerevisiae ATCC 9763)	SMILES	Average FICI with ceftazidime [6]	Interpretation of the average FICI with ceftazidime [6]	Interpretation of the lowest FICI with ceftazidime [6]	The lowest FICI with ceftazidime [6]	zone of inhibition at 0.4 mg/disc (B. subtilis ATCC 6633)	zone of inhibition at 0.4 mg/disc [7]	further results
> 400 µg/mL	> 400 µg/mL	> 400 µg/mL	> 400 µg/mL	400 µg/mL	400 µg/mL	400 µg/mL (≈ 2180 µM)	200 µg/mL (≈ 1090 µM)	100 µg/mL (≈ 544 µM)	100 µg/mL (≈ 544 µM)	200 µg/mL (≈ 1090 µM)	25 µg/mL (≈ 136 µM)	400 µg/mL (≈ 2180 µM)	25 µg/mL (≈ 136 µM)	OB(O)c1ccc(B(O)O)c(F)c1 [1b]	0.18	S (FICI ≤ 0.5, synergy)	S (FICI ≤ 0.5, synergy)	0.14	23 mm	17 mm	zone of inhibition at 0.4 mg/disc [5, 11]: 24 mm; zone of inhibition at 0.4 mg/disc [8]: 13 mm; zone of inhibition at 0.4 mg/disc (S. aureus ATCC 6538P): 14 mm; zone of inhibition at 0.4 mg/disc (S. cerevisiae ATCC 9763; [11]): 14 mm; MIC (C. tropicalis ATCC 750): > 400 µg/mL; MIC (C. albicans ATCC 90028): > 400 µg/mL; zone of inhibition at 100 µg/disc [9]: 20 mm; zone of inhibition at 100 µg/disc [10]: 11 mm
200 µg/mL	200 µg/mL	200 µg/mL	400 µg/mL	200 µg/mL	200 µg/mL	> 400 µg/mL	200 µg/mL (≈ 991 µM)	50 µg/mL (≈ 248 µM)	50 µg/mL (≈ 248 µM)	200 µg/mL (≈ 991 µM)	25 µg/mL (≈ 124 µM)	> 400 µg/mL	200 µg/mL (≈ 991 µM)	OB(O)c1ccc(B(O)O)c(F)c1F [1c]	0.32	S (FICI ≤ 0.5, synergy)	S (FICI ≤ 0.5, synergy)	0.17	28 mm	28 mm	zone of inhibition at 0.4 mg/disc (E. faecalis ATCC 29212; [12]): 16 mm; zone of inhibition at 0.4 mg/disc [8]: 22 mm; zone of inhibition at 0.4 mg/disc (E. faecium ATCC 6057; [12]): 15 mm; zone of inhibition at 0.4 mg/disc (S. aureus ATCC 6538P): 22 mm; MIC (C. tropicalis ATCC 750): > 400 µg/mL; MIC (C. albicans ATCC 90028): > 400 µg/mL; zone of inhibition at 100 µg/disc [9]: 18 mm; zone of inhibition at 100 µg/disc [10]: 6 mm

SMILES	MIC [1]	MIC [2]	MIC [3]	MIC [4]	MIC (E. coli 76 KPC-2(+))	MIC (E. coli 77 CMY-2(+))	MIC [5]	MIC (E. faecalis ATCC 29212)	MIC [7]	MIC [8]	MIC (E. faecium ATCC 6057)	MIC (S. aureus ATCC 6538P)	MIC (C. tropicalis IBA 171)	MIC (S. cerevisiae ATCC 9763)	Average FICI with ceftazidime [6]	Interpretation of the average FICI with ceftazidime [6]	Interpretation of the lowest FICI with ceftazidime [6]	The lowest FICI with ceftazidime [6]	zone of inhibition at 0.4 mg/disc (B. subtilis ATCC 6633)	zone of inhibition at 0.4 mg/disc [7]	further results
OB(O)c1ccc(B(O)O)cc1 [1a]	> 400 µg/mL	> 400 µg/mL	> 400 µg/mL	> 400 µg/mL	> 400 µg/mL	> 400 µg/mL	> 400 µg/mL	200 µg/mL (≈ 1210 µM)	400 µg/mL (≈ 2410 µM)	400 µg/mL (≈ 2410 µM)	400 µg/mL (≈ 2410 µM)	200 µg/mL (≈ 1210 µM)	> 400 µg/mL	400 µg/mL (≈ 2410 µM)	0.16	S (FICI ≤ 0.5, synergy)	S (FICI ≤ 0.5, synergy)	0.08	17 mm	14 mm	MIC (C. tropicalis ATCC 750): > 400 µg/mL; MIC (C. albicans ATCC 90028): > 400 µg/mL; zone of inhibition at 300 µg/disc ([9]; agent 0.3 mg per disc): 23 mm; zone of inhibition at 300 µg/disc ([10]; agent 0.3 mg per disc): 19 mm
